Read-outs that look alike come from different tables or passages of the source.
What was measured:
Type in all cases: biochemical
human 17β-HSD1 = target: T1, human 17β-HSD1 (Homo sapiens, UniProt P14061); test: Inhibition of human 17β-HSD1 (conversion of [3H]-E1 to E2, HPLC radioflow detection); details: for inhibition at 1 µM: read-out: % inhibition h17β-HSD1 @ 1 μM; for IC50: read-out: IC50 [nM] h17β-HSD1; for inhibition at 0.01 µM: read-out: % inhibition h17β-HSD1 @ 10 nM
T1 construct: For the partial purification of 17β-HSD1, the cytosolic fraction was precipitated with ammonium sulfate; from tissue; host or cells: human placenta, cytosolic fraction, ammonium sulfate precipitate
T1 sequence (P14061 1-328): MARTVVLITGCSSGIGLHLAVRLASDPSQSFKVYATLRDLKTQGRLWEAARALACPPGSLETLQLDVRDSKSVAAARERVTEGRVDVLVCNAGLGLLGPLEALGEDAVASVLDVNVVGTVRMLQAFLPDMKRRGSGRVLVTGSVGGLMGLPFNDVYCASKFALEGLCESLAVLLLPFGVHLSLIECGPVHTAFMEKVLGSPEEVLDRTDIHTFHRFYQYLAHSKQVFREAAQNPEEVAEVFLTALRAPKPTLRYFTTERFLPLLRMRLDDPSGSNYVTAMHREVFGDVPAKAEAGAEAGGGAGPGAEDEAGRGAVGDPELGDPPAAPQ

human 17β-HSD2 = target: T2, human 17β-HSD2 (Homo sapiens, UniProt P37059); test: Inhibition of human 17β-HSD2 (conversion of [3H]-E2 to E1); details: for IC50: read-out: IC50 [nM] h17β-HSD2; for inhibition at 0.01 µM: read-out: % inhibition h17β-HSD2 @ 10 nM
T2 construct: 17β-HSD2 was obtained from the microsomal fraction; from tissue; host or cells: human placenta, microsomal fraction
T2 sequence (P37059 1-387): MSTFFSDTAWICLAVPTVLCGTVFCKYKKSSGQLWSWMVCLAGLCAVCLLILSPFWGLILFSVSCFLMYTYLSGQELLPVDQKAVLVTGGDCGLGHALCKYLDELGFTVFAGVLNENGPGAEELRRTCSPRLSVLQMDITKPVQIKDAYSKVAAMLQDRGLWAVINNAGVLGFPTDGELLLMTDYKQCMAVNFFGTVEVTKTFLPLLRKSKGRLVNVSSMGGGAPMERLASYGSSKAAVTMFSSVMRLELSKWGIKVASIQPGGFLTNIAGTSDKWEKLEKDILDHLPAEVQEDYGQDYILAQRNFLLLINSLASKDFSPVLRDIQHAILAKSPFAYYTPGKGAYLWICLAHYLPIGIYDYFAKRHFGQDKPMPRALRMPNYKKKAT
Procedure: Fresh human placenta was homogenized, and cytosolic fraction and microsomes were separated by differential centrifugation at 1,000 g, 10,000 g and 150,000 g.
(§1) The conversion rate was calculated after analysis of the resulting chromatograms according to the following equation: % conversion=[% E1/(% E1+% E2)]×100

mouse 17β-HSD2 = target: T3, mouse 17β-HSD2 (Mus musculus, UniProt P51658); test: Inhibition of mouse 17β-HSD2 (liver microsomal fraction); details: for inhibition at 0.05 µM: read-out: % inhibition m17β-HSD2 @ 50 nM; for % inhibition m17β-HSD2 @ 50 nM: 0.05 µM
T3 construct: The pellet fractions containing the microsomal 17β-HSD2 were used for the determination of E1 formation; from tissue; host or cells: mouse liver, microsomal fraction
T3 sequence (P51658 1-381): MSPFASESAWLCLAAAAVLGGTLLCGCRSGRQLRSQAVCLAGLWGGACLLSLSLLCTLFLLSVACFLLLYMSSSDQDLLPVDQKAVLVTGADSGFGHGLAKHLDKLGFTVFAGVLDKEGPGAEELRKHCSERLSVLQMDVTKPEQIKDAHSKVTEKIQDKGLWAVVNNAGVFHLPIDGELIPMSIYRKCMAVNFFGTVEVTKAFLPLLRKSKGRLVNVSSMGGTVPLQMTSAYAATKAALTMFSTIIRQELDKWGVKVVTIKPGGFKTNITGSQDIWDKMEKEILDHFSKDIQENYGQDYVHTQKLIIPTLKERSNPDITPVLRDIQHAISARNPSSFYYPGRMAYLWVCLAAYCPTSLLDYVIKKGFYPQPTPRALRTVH
Procedure: Microsomal 17β-HSD2 fractions were obtained from mouse or rat liver. Fresh liver tissues were processed as described for the human placental 17β-HSD2 preparation. The pellet fractions containing the microsomal 17β-HSD2 were used for the determination of E1 formation.
as §1

[1] = human placental cytosolic enzyme, E1 500 nM, NADH, Tables 1, 4-11

SMILES	inhibition at 0.01 µM (human 17β-HSD1) [%]	inhibition at 0.01 µM (human 17β-HSD2) [%]	inhibition at 0.05 µM (mouse 17β-HSD2) [%]	other results
O=C(c1cccc(O)c1)c1ccc(-c2ccc(F)cc2F)s1 [A, reference compound]				inhibition at 1 µM (human 17β-HSD1): 32%
O=C(c1ccc(-c2ccncc2)s1)c1c(F)ccc(O)c1F [Compound 8, (2,6-Difluoro-3-hydroxy-phenyl)-(5-pyridin-4-yl-thiophen-2-yl)-methanone]				inhibition at 1 µM (human 17β-HSD1): 27%; inhibition at 1 µM (human 17β-HSD2; read-out: % inhibition h17β-HSD2 @ 1 μM): 49%
CC(C)Oc1ccc(-c2ccc(C(=O)c3c(F)ccc(O)c3F)s2)cc1C#N [Compound 18, 5-[5-(2,6-Difluoro-3-hydroxy-benzoyl)-thiophen-2-yl]-2-isopropoxy-benzonitrile]				IC50 (human 17β-HSD1): 8 nM; IC50 (human 17β-HSD2): 19 nM
COc1c(C)cc(-c2ccc(C(=O)c3c(F)ccc(O)c3F)s2)cc1Cl [Compound 26, [5-(3-Chloro-4-methoxy-5-methyl-phenyl)-thiophen-2-yl]-(2,6-difluoro-3-hydroxy-phenyl)-methanone]				IC50 (human 17β-HSD1; [1]): 0.4 nM
Cc1cc(-c2ccc(C(=O)c3c(F)ccc(O)c3F)s2)cc(Cl)c1O [Compound 27, [5-(3-Chloro-4-hydroxy-5-methyl-phenyl)-thiophen-2-yl]-(2,6-difluoro-3-hydroxy-phenyl)-methanone]				IC50 (human 17β-HSD1): 0.2 nM
COc1ccccc1-c1ccc(C(=O)c2cc(F)c(F)c(O)c2F)s1 [Compound 53, (5-(2-Methoxyphenyl)thiophen-2-yl)(2,4,5-trifluoro-3-hydroxyphenyl)methanone]	81	96	34	
Nc1ccccc1-c1ccc(C(=O)c2cc(F)c(F)c(O)c2F)s1 [Compound 55, (5-(2-Aminophenyl)thiophen-2-yl)(2,4,5-trifluoro-3-hydroxyphenyl)methanone]	12	68	23	
COc1ccc(-c2ccc(C(=O)c3cc(F)c(F)c(O)c3F)s2)cc1N [Compound 60, (5-(3-Amino-4-methoxyphenyl)thiophen-2-yl)(2,4,5-trifluoro-3-hydroxyphenyl)methanone]	13	51	23	
O=C(c1ccc(-c2cccnc2)s1)c1cc(F)c(F)c(O)c1F [Compound 65, (5-(Pyridin-3-yl)thiophen-2-yl)(2,4,5-trifluoro-3-hydroxyphenyl)methanone]	15	62		
O=C(c1ccc(-c2ccc3cccnc3c2)s1)c1cc(F)c(F)c(O)c1F [Compound 66, (5-(Quinolin-7-yl)thiophen-2-yl)(2,4,5-trifluoro-3-hydroxyphenyl)methanone]	22	83		
O=C(c1ccc(-c2ccc3[nH]cnc3c2)s1)c1cc(F)c(F)c(O)c1F [Compound 67, (5-(1H-Benzo[d]imidazol-5-yl)thiophen-2-yl)(2,4,5-trifluoro-3-hydroxyphenyl)methanone]	30	86		
O=C(c1ccc(-c2ccccc2O)s1)c1cc(F)c(F)c(O)c1F [Compound 70, (5-(2-Hydroxyphenyl)thiophen-2-yl)(2,4,5-trifluoro-3-hydroxyphenyl)methanone]	19	100		
Cc1cc(-c2ccc(C(=O)c3cc(F)cc(O)c3C)s2)cc(C)c1O [Compound 71, (5-(4-Hydroxy-3,5-dimethylphenyl)thiophen-2-yl)(5-fluoro-3-hydroxy-2-methylphenyl)methanone]			79	IC50 (human 17β-HSD1; [1]): 12.6 nM; IC50 (human 17β-HSD2): 50 nM; % inhibition m17β-HSD2 @ 50 nM (mouse 17β-HSD2): 79% @ 50 nM
Cc1cc(-c2ccc(C(=O)c3cc(F)c(F)c(O)c3C)s2)cc(C)c1O [Compound 72, (4,5-Difluoro-3-hydroxy-2-methylphenyl)(5-(4-hydroxy-3,5-dimethylphenyl)thiophen-2-yl)methanone]			22	IC50 (human 17β-HSD1; [1]): 44 nM; IC50 (human 17β-HSD2): 159 nM; % inhibition m17β-HSD2 @ 50 nM (mouse 17β-HSD2): 22% @ 50 nM
Cc1ccc(C(=O)c2cc(F)c(F)c(O)c2F)s1 [Compound 73, (5-Methylthiophen-2-yl)(2,4,5-trifluoro-3-hydroxyphenyl)methanone]				inhibition at 0.1 µM (human 17β-HSD1; read-out: % inhibition h17β-HSD1 @ 100 nM, compound 100 nM): 9.1%
COc1c(Cl)cc(-c2ccc(C(=O)c3c(Cl)ccc(O)c3F)s2)cc1Cl [Compound 77, (6-Chloro-2-fluoro-3-hydroxyphenyl)(5-(3,5-dichloro-4-methoxyphenyl)thiophen-2-yl)methanone]	100	45		
Nc1cccc(-c2ccc(C(=O)c3cccc(O)c3)s2)c1 [F, reference compound]				inhibition at 1 µM (human 17β-HSD1): 77%; inhibition at 1 µM (human 17β-HSD2; read-out: IC50 [nM] or % inhibition h17β-HSD1 (second column so headed, Table 6): % @ 1 μM): 68%

More lines, main results first:

inhibition at 0.01 µM (human 17β-HSD1) [%]	inhibition at 0.01 µM (human 17β-HSD2) [%]	inhibition at 0.05 µM (mouse 17β-HSD2) [%]	SMILES	other results
47	87		COc1ccc(-c2ccc(C(=O)c3cc(F)c(F)c(O)c3F)s2)cc1 [Compound 51, (5-(4-Methoxyphenyl)thiophen-2-yl)(2,4,5-trifluoro-3-hydroxyphenyl)methanone]	
75	47	15	COc1cccc(-c2ccc(C(=O)c3cc(F)c(F)c(O)c3F)s2)c1 [Compound 52, (5-(3-Methoxyphenyl)thiophen-2-yl)(2,4,5-trifluoro-3-hydroxyphenyl)methanone]	
31	89	30	CC(=O)Nc1cccc(-c2ccc(C(=O)c3cc(F)c(F)c(O)c3F)s2)c1 [Compound 54, N-(3-(5-(2,4,5-Trifluoro-3-hydroxybenzoyl)thiophen-2-yl)phenyl)acetamide]	
71	93		O=C(c1ccc(-c2ccccc2)s1)c1cc(F)c(F)c(O)c1F [Compound 56, (5-Phenylthiophen-2-yl)(2,4,5-trifluoro-3-hydroxyphenyl)methanone]	
14	60		Cc1ccc(-c2ccc(C(=O)c3cc(F)c(F)c(O)c3F)s2)cc1N [Compound 57, (5-(3-Amino-4-methylphenyl)thiophen-2-yl)(2,4,5-trifluoro-3-hydroxyphenyl)methanone]	
48	68	27	Nc1cc(-c2ccc(C(=O)c3cc(F)c(F)c(O)c3F)s2)ccc1O [Compound 59, (5-(3-Amino-4-hydroxyphenyl)thiophen-2-yl)(2,4,5-trifluoro-3-hydroxyphenyl)methanone]	
48	68	60	O=C(c1ccc(-c2ccc3[nH]ccc3c2)s1)c1cc(F)c(F)c(O)c1F [Compound 61, (5-(1H-Indol-5-yl)thiophen-2-yl)(2,4,5-trifluoro-3-hydroxyphenyl)methanone]	
0	62	28	CC(=O)Nc1ccc(-c2ccc(C(=O)c3cc(F)c(F)c(O)c3F)s2)cc1 [Compound 64, N-(4-(5-(2,4,5-trifluoro-3-hydroxybenzoyl)thiophen-2-yl)phenyl)acetamide]	
72	95	32	O=C(c1ccc(-c2cccc(O)c2)s1)c1cc(F)c(F)c(O)c1F [Compound 69, (5-(3-Hydroxyphenyl)thiophen-2-yl)(2,4,5-trifluoro-3-hydroxyphenyl)methanone]	
20	72		NS(=O)(=O)Oc1ccc(-c2ccc(C(=O)c3cc(F)c(F)c(O)c3F)s2)cc1 [Compound 74, 4-(5-(2,4,5-Trifluoro-3-hydroxybenzoyl)thiophen-2-yl)phenyl sulfamate]	
